Assay results reported in BigSolDB 2.1.

O=[N+]([O-])c1cn[nH]c1
solubility (mole fraction)
Details	288.15 K	293.15 K	298.15 K	303.15 K	308.15 K	313.15 K	318.15 K	323.15 K	328.15 K
in THF	0.00413	0.00496	0.00592	0.00722	0.0089	0.011	0.0134	0.017	0.022
in acetone	0.0381	0.0405	0.0423	0.045	0.047	0.0495	0.0525	0.0553	0.0582
in acetonitrile	0.0391	0.0457	0.0529	0.0647	0.0776	0.0906	0.108	0.124	0.135
in ethanol	0.101	0.113	0.128	0.147	0.168	0.197	0.232	0.27	0.31
in ethyl acetate	0.00483	0.00609	0.00759	0.00946	0.0118	0.0144	0.0176	0.0214	0.0261
in isobutanol	0.0549	0.0648	0.0762	0.0908	0.107	0.132	0.161	0.195	0.247
in isopentanol	0.0629	0.0732	0.0854	0.106	0.12	0.143	0.173	0.213	0.262
in isopropanol	0.0481	0.0568	0.0675	0.0827	0.0988	0.121	0.147	0.186	0.238
in methanol	0.109	0.126	0.142	0.163	0.188	0.219	0.258	0.312	0.366
in methyl acetate	0.00727	0.00817	0.00942	0.0119	0.0139	0.0169	0.0189	0.024	0.0272
in n-butanol	0.079	0.0902	0.104	0.12	0.14	0.166	0.199	0.241	0.283
in n-pentanol	0.0714	0.0823	0.095	0.112	0.132	0.156	0.189	0.232	0.276
in n-propanol	0.0872	0.101	0.115	0.133	0.154	0.181	0.216	0.255	0.313
in water	0.00217	0.00286	0.0036	0.00471	0.00618	0.00763	0.00961	0.012	0.0151
